{"source": "paper PMC10826971", "about": "“Evaluating protein cross-linking as a therapeutic strategy to stabilize SOD1 variants in a mouse model of familial ALS” (PLOS Biology, 2024)", "key": {"wild-type SOD1": {"biological_target": "wild-type SOD1 (Homo sapiens, UniProt P00441)", "sequence (P00441 2-154 limits assumed)": "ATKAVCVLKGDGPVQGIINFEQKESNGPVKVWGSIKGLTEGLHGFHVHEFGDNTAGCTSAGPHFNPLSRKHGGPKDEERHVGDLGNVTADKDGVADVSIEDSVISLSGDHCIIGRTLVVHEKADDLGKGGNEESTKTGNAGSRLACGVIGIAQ", "test": "Differential scanning fluorimetry (DSF), thermal stability", "format": "binding", "design": "made in house; host or cells: EGy118ΔSOD1 yeast, YEp351 expression vector", "conditions": "10-fold molar excess S-XL6, 4 h 37°C; untreated 75.9°C", "protocol": "(§1) To understand how cross-linking effects SOD1 stability, we quantified changes in unfolding temperature (ΔTu, hereafter thermal stability).\n(§2) The effect of cross-link formation on the thermal stability of SOD1 was determined by differential scanning fluorimetry as previously described. […] After incubation, SYPRO Orange (Invitrogen Corporation, Carlsbad, California, USA), an environmentally sensitive fluorescent dye which is quenched in an aqueous environment but becomes unquenched once it binds hydrophobic residues, was added to the reaction mixture to a final concentration of 200×. The samples were then transferred to a fast optical 96-well reaction plate (Applied Biosystem, Life Technologies Corporation, Carlsbad, California, USA) and loaded on to the real-time PCR machine (Applied Biosystem, Life Technologies Corporation, Carlsbad, California, USA) after plate was spun down to eliminate bubbles. The Melt curve template in StepOne Plus software was used to set up a method. […] The final concentration of DMSO in the reaction mixture was checked as it contributes to the denaturation of proteins. […] The background data was subtracted from the average relative fluorescence and average derivate for each temperature point, and the data were normalized before Tus were quantified by averaging the negative first derivative of relative fluorescence of all 3 runs and identifying the local minima."}, "SOD1^G93A": {"biological_target": "SOD1^G93A (Homo sapiens, UniProt P00441, G94A)", "sequence (P00441 2-154 G94A limits assumed)": "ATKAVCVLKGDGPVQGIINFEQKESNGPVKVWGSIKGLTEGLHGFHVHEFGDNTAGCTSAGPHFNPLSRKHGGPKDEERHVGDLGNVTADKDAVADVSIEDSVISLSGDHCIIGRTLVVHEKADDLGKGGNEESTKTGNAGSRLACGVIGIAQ", "test": "Differential scanning fluorimetry (DSF), thermal stability", "format": "binding", "design": "made in house; host or cells: EGy118ΔSOD1 yeast, YEp351 expression vector", "conditions": "10-fold molar excess S-XL6, 4 h 37°C; untreated 70.6°C", "protocol": "as §1, §2"}, "human serum albumin": {"biological_target": "human serum albumin (Homo sapiens, UniProt P02768)", "sequence (P02768 25-609)": "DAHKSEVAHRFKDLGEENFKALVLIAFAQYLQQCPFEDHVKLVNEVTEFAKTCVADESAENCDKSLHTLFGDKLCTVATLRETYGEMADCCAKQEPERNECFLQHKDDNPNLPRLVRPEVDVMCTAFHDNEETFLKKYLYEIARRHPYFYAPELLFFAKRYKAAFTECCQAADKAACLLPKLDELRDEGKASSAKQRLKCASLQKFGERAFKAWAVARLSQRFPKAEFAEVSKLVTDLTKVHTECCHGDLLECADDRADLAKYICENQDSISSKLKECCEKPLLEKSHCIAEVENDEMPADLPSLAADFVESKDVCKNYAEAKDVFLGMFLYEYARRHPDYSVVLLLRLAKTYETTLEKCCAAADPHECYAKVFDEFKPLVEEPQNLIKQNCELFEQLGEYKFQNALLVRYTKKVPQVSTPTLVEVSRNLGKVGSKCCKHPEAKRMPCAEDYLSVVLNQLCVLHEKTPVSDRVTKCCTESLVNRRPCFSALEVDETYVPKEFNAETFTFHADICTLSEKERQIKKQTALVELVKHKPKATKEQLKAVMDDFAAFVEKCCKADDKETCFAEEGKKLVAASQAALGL", "format": "in vitro ADME"}, "[1]": {"test": "MTT cell viability/cytotoxicity assay", "format": "cell-based", "conditions": "human, Hep G2 cells", "protocol": "The Hep G2 human hepatocarcinoma cell line (American Type Culture Collection, ATCC, Manassas, Virginia, USA) was cultured using EMEM (Eagle’s minimal essential medium, ATCC) supplemented with 10% FBS (fetal bovine serum, ATCC) and 1% penicillin streptomycin as previously described (10,000 units/mL penicillin and 10,000 μg/mL streptomycin, Fisher scientific, Hampton, New Hampshire, USA). The cells were grown and subcultured around 72 h at 37°C, 5% CO2 under controlled humidity. The cells growth and morphology were inspected using an inverted Carl Zeiss microscope (Carl Zeiss Microscopy LLC, White Plains, New York, USA).\nUsing manufacturer’s instructions, Hep G2 cells were cultured for 24 h with a density of 2 × 10^5 cells/mL in a 96-well culture plate at 37°C, 5% CO2 under controlled humidity. […] Cell cytotoxicity was performed via the MTT (3-(4,5-dimethylthiazol-2-yl)-2,5-diphenyltetrazolium bromide) assay at 570 nm absorbance using BioTek synergy H1 (Vermont, USA) plate reader according to previously published paper. The MTT stock was made at 5 mg/mL using 0.9% sodium chloride solution which was purchased from Sigma Aldrich (St. Louis, Missouri, USA). Twenty-four hours after dosing the plate, the cultured medium was aspirated and replaced with the equal volume of MTT solution (10× dilution using EMEM complete media). The plate was incubated for 4 h (37°C, 5% CO2). The MTT solution was replaced by the equal amount of acidified isopropanol (0.3% hydrochloric acid (v/v)) and then formed formazan was dissolved by shaking the plate gently for 30 min. The absorbance was measured at 570 nm for both the samples and acidified isopropanol for background calculation. Chlorpromazine and cells with 0.1% DMSO were used as positive control and vehicle, respectively. The cell viability of each concentration was measured by normalizing against mean value of cells with 0.1% DMSO (vehicle)."}}, "data": [{"smiles": "[O-][S+]1CCCCS1", "note": "(stereo not drawn) [S-XL6, 1,2-dithiane-1-oxide]", "values": [{"measurement": "unfolding temperature (Tu) of S-XL6 cross-linked protein", "setting": "wild-type SOD1", "value": 90.2, "unit": "°C"}, {"measurement": "unfolding temperature (Tu) of S-XL6 cross-linked protein", "setting": "SOD1^G93A", "value": 85.0, "unit": "°C"}, {"measurement": "binding to purified protein", "setting": "human serum albumin", "value": "not bound"}, {"measurement": "viability at 24 h, 10 µM", "setting": "[1]; 10 µM, read-out: viable cells compared to vehicle control (MTT)", "value": 125, "unit": "%"}, {"measurement": "viability at 24 h, 100 µM", "setting": "[1]; 100 µM, read-out: viable cells compared to vehicle control (MTT)", "value": 102, "unit": "%"}, {"measurement": "viability at 24 h, 150 µM", "setting": "[1]; 150 µM, read-out: viable cells compared to vehicle control (MTT)", "value": 90, "unit": "%"}, {"measurement": "viability at 24 h, 250 µM", "setting": "[1]; 250 µM, read-out: viable cells compared to vehicle control (MTT)", "value": 79, "unit": "%"}, {"measurement": "viability at 24 h, 400 µM", "setting": "[1]; 400 µM, read-out: viable cells compared to vehicle control (MTT)", "value": 72, "unit": "%"}, {"measurement": "viability at 24 h, 600 µM", "setting": "[1]; 600 µM, read-out: viable cells compared to vehicle control (MTT)", "value": 15, "unit": "%"}, {"measurement": "viability at 24 h, 800 µM", "setting": "[1]; 800 µM, read-out: viable cells compared to vehicle control (MTT)", "value": 14, "unit": "%"}, {"measurement": "viability at 24 h, 1000 µM", "setting": "[1]; 1000 µM, read-out: viable cells compared to vehicle control (MTT)", "value": 14, "unit": "%"}, {"measurement": "CC50 at 24 h", "setting": "[1]; MTT, read-out: Cytotoxicity LC50", "value": "~446", "unit": "µM"}]}]}
